Values after ≈ are worked out from the molar mass of the structure shown. Where two headings read alike, the source gives them in different places. Starred links: 1 amine or outer side, 2 acyl side, 3 side chain; linkers in the order of their positions; H or OH if unused. Positions of bridges follow the written chain, without caps; N, C: chain ends. Residues, ends and D or L forms follow the SMILES beside them. *: point of attachment. C20 diacid = O=C(O)CCCCCCCCCCCCCCCCCCC(=O)*; γGlu = O=C(O)[C@H](CCC(=O)[*:2])N[*:1]
Key:
[1] = Assay (III) ThT fibrillation assay for physical stability; type: physicochemical
In short: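 Freshly prepared formulations, pH-adjusted, with 1 μM ThT; four or eight replicates incubated at 37 °C under 960 rpm orbital shaking. Fluorescence (ex 444/em 485 nm) read every 20 min; […]. Peptide concentration measured by RP-HPLC before and after the run.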

[2] = biological target: T1, human amylin receptor (amylin 3(a) receptor: human calcitonin receptor + RAMP-3) (Homo sapiens, UniProt O60896+P30988); assay: Assay (II)a functional CRE-luciferase assay, human amylin receptor; type: cell-based; conditions: Table 2; BHK amylin 3(a)-receptor/CRE-luc cells
T1 construct: expressed in transfected cells; host or cells: BHK570
T1 sequence (P30988 25-474): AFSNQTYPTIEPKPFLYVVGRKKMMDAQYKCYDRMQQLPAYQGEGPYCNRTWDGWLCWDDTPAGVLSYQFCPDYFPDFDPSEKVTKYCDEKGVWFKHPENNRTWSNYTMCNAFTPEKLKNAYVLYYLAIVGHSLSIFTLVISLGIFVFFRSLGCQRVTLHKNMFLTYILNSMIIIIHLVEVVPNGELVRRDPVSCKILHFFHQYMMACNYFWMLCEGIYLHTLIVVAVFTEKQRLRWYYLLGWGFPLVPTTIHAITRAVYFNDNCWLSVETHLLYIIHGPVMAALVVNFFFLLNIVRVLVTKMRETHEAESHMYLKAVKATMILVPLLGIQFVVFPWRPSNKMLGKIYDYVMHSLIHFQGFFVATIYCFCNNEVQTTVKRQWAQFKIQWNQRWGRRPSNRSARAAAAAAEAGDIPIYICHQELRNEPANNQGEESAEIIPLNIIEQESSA
T1 sequence (O60896 24-148 partner): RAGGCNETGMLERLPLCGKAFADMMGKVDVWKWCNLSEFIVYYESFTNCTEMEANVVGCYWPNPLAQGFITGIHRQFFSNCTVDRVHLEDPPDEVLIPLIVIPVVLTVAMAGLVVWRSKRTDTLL

[3] = Assay (IV) determination of solubility; type: physicochemical
In short: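 Solubility was profiled across pH 3.0–8.0 after 18 hours at room temperature: a ~500 nmol/ml aqueous polypeptide solution was diluted 1:1 into 100 mM glycylglycine or bistrispropane buffers. After centrifugation, HPLC gave the dissolved concentration.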

[4] = biological target: T2, human calcitonin receptor (Homo sapiens, UniProt P30988); assay: Assay (II)a functional CRE-luciferase assay, human calcitonin receptor; type: cell-based; conditions: Table 7; human calcitonin (CTa) receptor
T2 construct: expressed in transfected cells; host or cells: BHK570
T2 sequence (P30988 25-474): T1 sequence (P30988 25-474)

[5] = bistrispropane buffer, pH 6, pH 6.0, read-out: Solubility pH 6.0
[6] = bistrispropane buffer, pH 6.5, pH 6.5, read-out: Solubility pH 6.5
[7] = bistrispropane buffer, pH 7, pH 7.0, 18 hours at room temperature, Table 3, read-out: Solubility pH 7.0
[8] = bistrispropane buffer, pH 7, pH 7.0, Table 8, read-out: Solubility pH 7.0
[9] = bistrispropane buffer, pH 7, pH 7.0, Table 9, read-out: Solubility pH 7.0
[10] = bistrispropane buffer, pH 7, pH 7.0, read-out: Solubility pH 7.0
[11] = bistrispropane buffer, pH 7.5, pH 7.5, Table 9, read-out: Solubility pH 7.5
[12] = bistrispropane buffer, pH 7.5, pH 7.5, read-out: Solubility pH 7.5
[13] = bistrispropane buffer, pH 8, pH 8.0, read-out: Solubility pH 8.0
[14] = glycylglycine buffer, pH 3, pH 3.0, read-out: Solubility pH 3.0
[15] = glycylglycine buffer, pH 4, pH 4.0, 18 hours at room temperature, Table 2, read-out: Solubility pH 4.0
[16] = glycylglycine buffer, pH 4, pH 4.0, read-out: Solubility pH 4.0
[17] = glycylglycine buffer, pH 5, pH 5.0, read-out: Solubility pH 5.0

Structure (SMILES) | ThT pH 4.0 lag time ([1]; Table 8) [h] | ThT pH 4.0 lag time ([1]; Table 9) [h] | ThT pH 4.0 lag time ([1]; ThT fibrillation assay) [h] | ThT pH 4.0 lag time (h) ([1]; ThT fibrillation assay) | EC50 [2] [nM] | solubility at 18 h [3, 5] [µM] | solubility at 18 h [3, 6] [µM] | solubility at 18 h [3, 7] [µM] | solubility at 18 h [3, 8] [µM] | solubility at 18 h [3, 9] [µM] | solubility at 18 h [3, 10] [µM] | solubility at 18 h [3, 11] [µM] | solubility at 18 h [3, 12] [µM] | solubility at 18 h [3, 13] [µM] | solubility at 18 h [3, 14] [µM] | solubility at 18 h [3, 15] [µM] | solubility at 18 h [3, 16] [µM] | solubility at 18 h [3, 17] [µM] | EC50 [4] [nM]
CC[C@H](C)[C@H](NC(=O)[C@@H]1CCCN1C(=O)CNC(=O)[C@H](Cc1ccccc1)NC(=O)[C@H](CC(N)=O)NC(=O)[C@H](CC(N)=O)NC(=O)[C@H](CO)NC(=O)[C@H](CO)NC(=O)[C@H](Cc1c[nH]cn1)NC(=O)[C@H](Cc1c[nH]cn1)NC(=O)[C@H](CC(C)C)NC(=O)[C@H](Cc1ccccc1)NC(=O)[C@H](CCC(=O)O)NC(=O)[C@H](C)NC(=O)[C@H](CC(C)C)NC(=O)[C@H](CCCNC(=N)N)NC(=O)[C@H](CCC(N)=O)NC(=O)[C@@H](NC(=O)[C@H](C)NC(=O)[C@@H]1CSSC[C@H](NC(=O)[C@H](CCCCN)NC(=O)CC[C@H](NC(=O)CCCCCCCCCCCCCCCCCCC(=O)O)C(=O)O)C(=O)N[C@@H](CC(N)=O)C(=O)N[C@@H]([C@@H](C)O)C(=O)N[C@@H](C)C(=O)N[C@@H]([C@@H](C)O)C(=O)N1)[C@@H](C)O)C(=O)N[C@@H](CC(C)C)C(=O)N1CCC[C@H]1C(=O)N1CCC[C@H]1C(=O)N[C@H](C(=O)N[C@@H](CC(N)=O)C(=O)N[C@H](C(=O)NCC(=O)N[C@@H](CO)C(=O)N[C@@H](CCC(N)=O)C(=O)N[C@H](C(=O)N1CCC[C@H]1C(N)=O)[C@@H](C)O)C(C)C)[C@@H](C)O [Example 135, N-alpha-[(S)-4-Carboxy-4-(19-carboxynonadecanoylamino)butyryl]-[Glu14,His17,Gln35,Pro37]-pramlintide] ({C20 diacid-γGlu}-KCNTATCATQRLAEFLHHSSNNFGPILPPTNVGSQTP-NH2; disulfide 2-7 (inferred)) | >45 | >45 | >45 | >45 | 0.103 | > 200 | > 200 | > 200 | > 200 | > 200 | > 200 | > 200 | > 200 | > 200 | > 200 | > 200 | > 200 | > 200 | 0.097
CC[C@H](C)[C@H](NC(=O)[C@@H]1CCCN1C(=O)CNC(=O)[C@H](Cc1ccccc1)NC(=O)[C@H](CC(N)=O)NC(=O)[C@H](CCC(N)=O)NC(=O)[C@H](CO)NC(=O)[C@H](CO)NC(=O)[C@H](Cc1c[nH]cn1)NC(=O)[C@H](Cc1c[nH]cn1)NC(=O)[C@H](CC(C)C)NC(=O)[C@H](Cc1ccccc1)NC(=O)[C@H](CCC(=O)O)NC(=O)[C@H](C)NC(=O)[C@H](CC(C)C)NC(=O)[C@H](CCCNC(=N)N)NC(=O)[C@H](CCC(N)=O)NC(=O)[C@@H](NC(=O)[C@H](C)NC(=O)[C@@H]1CSSC[C@H](NC(=O)[C@H](CCCCN)NC(=O)CC[C@H](NC(=O)CCCCCCCCCCCCCCCCCCC(=O)O)C(=O)O)C(=O)N[C@@H](CC(N)=O)C(=O)N[C@@H]([C@@H](C)O)C(=O)N[C@@H](C)C(=O)N[C@@H]([C@@H](C)O)C(=O)N1)[C@@H](C)O)C(=O)N[C@@H](CC(C)C)C(=O)N1CCC[C@H]1C(=O)N1CCC[C@H]1C(=O)N[C@H](C(=O)N[C@@H](CC(N)=O)C(=O)N[C@H](C(=O)NCC(=O)N[C@@H](CO)C(=O)N[C@@H](CCC(N)=O)C(=O)N[C@H](C(=O)N1CCC[C@H]1C(N)=O)[C@@H](C)O)C(C)C)[C@@H](C)O [Example 136, N-alpha-[(S)-4-Carboxy-4-(19-carboxynonadecanoylamino)butyryl]-[Glu14,His17,Gln21,Gln35,Pro37]-pramlintide] ({C20 diacid-γGlu}-KCNTATCATQRLAEFLHHSSQNFGPILPPTNVGSQTP-NH2; disulfide 2-7 (inferred)) | >45 | >45 | >45 | >45 | 0.091 | > 200 | > 200 | > 200 | > 200 | > 200 | > 200 | > 200 | > 200 | > 200 | > 200 | > 200 | > 200 | > 200 | 0.045
CC[C@H](C)[C@H](NC(=O)[C@@H]1CCCN1C(=O)CNC(=O)[C@H](Cc1ccccc1)NC(=O)[C@H](CC(N)=O)NC(=O)[C@H](CCC(N)=O)NC(=O)[C@H](CO)NC(=O)[C@H](CO)NC(=O)[C@H](Cc1c[nH]cn1)NC(=O)[C@H](Cc1c[nH]cn1)NC(=O)[C@H](CC(C)C)NC(=O)[C@H](Cc1ccccc1)NC(=O)[C@H](CCC(=O)O)NC(=O)[C@H](C)NC(=O)[C@H](CC(C)C)NC(=O)[C@H](CCCNC(=N)N)NC(=O)[C@H](CCC(N)=O)NC(=O)[C@@H](NC(=O)[C@H](C)NC(=O)[C@@H]1CSSC[C@H](NC(=O)CNC(=O)CC[C@H](NC(=O)CCCCCCCCCCCCCCCCCCC(=O)O)C(=O)O)C(=O)N[C@@H](CC(N)=O)C(=O)N[C@@H]([C@@H](C)O)C(=O)N[C@@H](C)C(=O)N[C@@H]([C@@H](C)O)C(=O)N1)[C@@H](C)O)C(=O)N[C@@H](CC(C)C)C(=O)N1CCC[C@H]1C(=O)N1CCC[C@H]1C(=O)N[C@H](C(=O)N[C@@H](CC(N)=O)C(=O)N[C@H](C(=O)NCC(=O)N[C@@H](CO)C(=O)N[C@@H](CCC(N)=O)C(=O)N[C@H](C(=O)N1CCC[C@H]1C(N)=O)[C@@H](C)O)C(C)C)[C@@H](C)O [Example 137, N-alpha-[(S)-4-Carboxy-4-(19-carboxynonadecanoylamino)butyryl]-[Gly1,Glu14,His17,Gln21,Gln35,Pro37]-pramlintide] ({C20 diacid-γGlu}-GCNTATCATQRLAEFLHHSSQNFGPILPPTNVGSQTP-NH2; disulfide 2-7) | 29 |  | 29 | 29 | 0.121 | 192 (≈ 835 µg/mL) | > 200 | > 200 | > 200 |  | > 200 |  | > 200 | > 200 | > 200 | > 200 | > 200 | > 200 | 0.072
CC[C@H](C)[C@H](NC(=O)[C@@H]1CCCN1C(=O)CNC(=O)[C@H](Cc1ccccc1)NC(=O)[C@H](CC(N)=O)NC(=O)[C@H](CCC(N)=O)NC(=O)[C@H](CO)NC(=O)[C@H](CO)NC(=O)[C@H](Cc1c[nH]cn1)NC(=O)[C@@H](NC(=O)[C@H](CC(C)C)NC(=O)[C@H](Cc1ccccc1)NC(=O)[C@H](CCC(=O)O)NC(=O)[C@H](C)NC(=O)[C@H](CC(C)C)NC(=O)[C@H](CCCNC(=N)N)NC(=O)[C@H](CCC(N)=O)NC(=O)[C@@H](NC(=O)[C@H](C)NC(=O)[C@@H]1CSSC[C@H](NC(=O)[C@H](CCC(=O)O)NC(=O)CC[C@H](NC(=O)CCCCCCCCCCCCCCCCCCC(=O)O)C(=O)O)C(=O)N[C@@H](CC(N)=O)C(=O)N[C@@H]([C@@H](C)O)C(=O)N[C@@H](C)C(=O)N[C@@H]([C@@H](C)O)C(=O)N1)[C@@H](C)O)C(C)C)C(=O)N[C@@H](CC(C)C)C(=O)N1CCC[C@H]1C(=O)N1CCC[C@H]1C(=O)N[C@H](C(=O)N[C@@H](CC(N)=O)C(=O)N[C@H](C(=O)NCC(=O)N[C@@H](CO)C(=O)N[C@@H](CCC(N)=O)C(=O)N[C@H](C(=O)N1CCC[C@H]1C(N)=O)[C@@H](C)O)C(C)C)[C@@H](C)O [Example 138, N-alpha-[(S)-4-Carboxy-4-(19-carboxynonadecanoylamino)butyryl]-[Glu1,Glu14,Gln21,Gln35,Pro37]-pramlintide] ({C20 diacid-γGlu}-ECNTATCATQRLAEFLVHSSQNFGPILPPTNVGSQTP-NH2; disulfide 2-7) |  |  |  | 1.3 | 1.51 | > 200 | > 200 | > 200 |  |  | > 200 |  | > 200 | > 200 | > 200 | > 200 | > 200 | > 200 | 0.496

Source: US8722849B2, “Polypeptides” (Novo Nordisk A/S, priority 2011, dated 2014)
